Data reported in patent US7390870B2, “Immune-enhancing peptides” (Posco, priority 2001, dated 2008).

Legend:
monocytes [1] = assay: Effect of enzyme inhibitors on peptide-induced monocyte chemotaxis; type: cell-based, human; settings: FIG. 10; for inhibition of MFYLPM-induced chemotaxis: 1 μM MFYLPM
Method: (§1) Chemotaxis assays of the peptide were performed using multiwell chambers (Neuroprobe Inc., Gaithersburg, Md.) (20). Briefly, the prepared isolated human monocytes were suspended in RPMI at a concentration of 1×10^6 cells/ml of serum-free RPMI, and 25 □ of the suspension were placed onto the upper well of a 96-well chemotaxis chamber that was separated by a […] filter with a 5 □ pore size (3 □ diameter pores not coated with polyvinylpyrrolidone for neutrophils) from peptides or an fMLF-containing lower well. After incubation for 2 hours (90 minutes for neutrophils) at 37° C., non-migrated cells were removed by scraping them out, and cells that migrated across the filter were dehydrated, fixed, and stained with hematoxylin (Sigma, St. Louis, Mo.). The stained cells in five randomly chosen high power fields (HPF) (400×) in that well were then counted (21). The numbers of migrated cells were determined by counting them in a high power field (400×). For a checkboard analysis, cells were re-suspended in RPMI containing various concentrations of the peptide just before transferring them to the upper wells as described before (22).
Monocytes were pretreated either with LY (LY294002, 50 μM), GFX (GF109203X, 5 μM), or PD (PD98059, 50 μM), or they remained untreated for the control After an incubation of the indicated periods (15 minutes for LY294002 and GF109203X, 60 minutes for PD98059), the cells were washed twice and used for chemotaxis assay. 25 □ of monocytes at 1×10^6 cells/ml were added to the upper wells and allowed to migrate for 2 hrs at 37° C. (humidified atmosphere; 5% CO2) toward each peptide (1 μM HFYLPM, 1 μM MFYLPM, or 10 nM HFYLPm) or medium. After fixing and staining of the membrane, the numbers of migrated cells were determined by counting them in a high power field (400×). The results are shown FIG. 10. The data are presented as means ±S.E. of three independent experiments each performed in duplicate. *P<0.01 versus medium treatment and †P<0.01 versus peptide treatment, respectively.

monocytes [2] = assay: Effect of PTX on peptide-induced chemotactic migration in monocytes; type: cell-based, human; settings: FIG. 8, PTX preincubation 90 minutes
Method: as §1
Several extracellular signals including many chemoattractants activate phagocytic cells via pertussis toxin (PTX)-sensitive G-protein(s) (27-29). Therefore, the involvement of PTX-sensitive G-protein(s) on the peptide-induced monocyte activation was examined. Monocytes were preincubated with PTX (1 □/ml) or vehicle only for 90 minutes at 37° C. The cells were used for chemotaxis assay with HFYLPM (1 μM), MFYLPM (1 μM), HFYLPm (100 nM), and fMLF (100 nM). The numbers of migrated cells were determined by counting them in a high power field (400×). The results are illustrated in FIG. 8. The data of FIG. 8 are presented as means±S.E. of two independent experiments each performed in duplicate. *P<0.01 versus medium treatment and †P<0.01 versus peptide treatment, respectively.

[3] = LY294002 50 μM, GF109203X 5 μM, PD98059 50 μM, 10 nM HFYLPm
[4] = LY294002 50 μM, GF109203X 5 μM, PD98059 50 μM

Row | Molecule | inhibition of HFYLPm-induced chemotaxis (monocytes [1]; LY294002 50 μM, GF109203X 5 μM, 15 minutes pretreatment, 1 μM HFYLPM) [%] | inhibition of HFYLPm-induced chemotaxis (monocytes [1]; [3]) | inhibition of MFYLPM-induced chemotaxis (monocytes [1]; [4]) | inhibition at 50 µM (monocytes [1]; Homo sapiens, Monocyte, LY294002 50 μM, GF109203X 5 μM, 15 minutes pretreatment, 1 μM HFYLPM) [%] | inhibition of HFYLPm-induced chemotaxis (monocytes [1]; PD98059 50 μM, 60 minutes pretreatment, 1 μM HFYLPM) | inhibition of HFYLPm-induced monocyte chemotaxis (monocytes [2]; HFYLPM 1 μM) | inhibition of HFYLPm-induced monocyte chemotaxis (monocytes [2]; HFYLPm 100 nM) | inhibition of MFYLPM-induced monocyte chemotaxis (monocytes [2]; MFYLPM 1 μM) | inhibition of fMLF-induced monocyte chemotaxis (monocytes [2]; fMLF 100 nM)
1 | CN(C)CCCn1cc(C2=C(c3c[nH]c4ccccc34)C(=O)NC2=O)c2ccccc21 [GF109203X] | ~50 | no effect | no effect |  |  |  |  |  | 
2 | O=c1cc(N2CCOCC2)oc2c(-c3ccccc3)cccc12 [LY294002] |  | no effect | no effect | ~75 |  |  |  |  | 
3 | COc1cccc(-c2cc(=O)c3ccccc3o2)c1N [PD98059] |  | almost complete inhibition | almost complete inhibition |  | almost complete inhibition |  |  |  | 
4 | pertussis toxin [PTX] |  |  |  |  |  | complete inhibition | complete inhibition | complete inhibition | completely blocked
